Patent publication US20240279641A1, “Structural Neuroplasticity Enhancer Screen” (Northwestern University, priority 2021, published 2024)

Assays:
Assay type in all cases: cell-based, mouse
[1] = system: primary hippocampal and cortical neurons; assay: SARE-ArcMin-luciferase-PSD95-mVenus luciferase assay in primary neuronal cultures, 96-well; details: hippocampal vs cortical primary cultures, 96-well plate
Experimental: (§1) Animals were handled according to protocols approved by the Northwestern University Animal Care and Use Committee. Cortical neurons were harvested from mouse embryos euthanized at embryonic day 18 and plated in poly-D-lysine coated plates. Embryonic brains were dissected in ice-cold dissection media (Hank's balance salt solution HBSS, 2% penicillin-streptomycin, 20 mM HEPES). Meninges were removed from each brain and cortices were dissected out. The cortices were chopped into small pieces using a microscissors and pooled in 5 mL dissection media containing 0.25% trypsin and 0.1% DNasel and trypsinised at 37° ° C. for 20-25 min. Cortices were washed twice with warm dissection media, and once with warm plating medium (MEM, supplemented with 10% heat-inactivated horse serum, 0.6% glucose, 1 mM Na pyruvate, 1% Glutamax, 1% penicillin-streptomycin) for 5 min each. Tissues were titurated in 3 mL fresh plating medium with unpolished and, subsequently, polished glass Pasteur pipettes. 1 k, 80 k, 150 k, 2500 k cells were seeded in 384-well, 12-well, 6-well plates, 10-cm dishes, respectively. […]
Luciferase substrate systems were prepared according to the Manufacturer's instructions. […] Plates were read by Biotek Syngery Neo2 plate reader. […]

primary cortical neurons = assay: Western blot of biotinylation by TurboID constructs in cortical neurons; details: 55 mM KCl
Experimental: as §1, with “pipettes.” for “pipettes. 1 k, 80 k, 150 k, 2500 k cells were seeded in 384-well, 12-well, 6-well plates, 10-cm dishes, respectively.”
Cell pellets were sonicated in NP40 lysis buffer (1% NP40, 150 mM NaCl, 50 mM Tris, pH 8, 1× Halt). […] Total protein was detected using REVERT 700 according to the manufacturer instructions. […] All quantification was performed using LI-COR Image Studio version 5.2. For densitometry quantification, band signals were normalized to total protein stain in each blot using the equation below.

cFos = assay: Western blot analysis of forskolin stimulation in cell culture: cFos; details: 1 μM forskolin vs 0.1% DMSO, normalized band signal, n=3, adj. p=0.0462
Experimental: (§2) For initial 384-well plate set up and western blot validation, forskolin (from 25 mM DMSO stock) was used as a positive control and DMSO was used as a vehicle control. For example, at 25 and 2.5 μM forskolin (0.1%, 0.01% DMSO), the corresponding vehicle control was 0.1% and 0.01% DMSO, respectively. Media was changed to NB-27 containing pharmacological agents (concentration specified in figure legends) and processed as described in each section 16 hrs after treatment.
(§3) Cell pellets were sonicated in NP40 lysis buffer (1% NP40, 150 mM NaCl, 50 mM Tris, pH 8, 1× Halt). Proteins were separated in 12% Tris-glycine gels and transferred to nitrocellulose membrane (Cat. No. 926-31090, LI-COR, NE, USA). Blots were briefly rinsed with TBS. Total protein was detected using REVERT 700 according to the manufacturer instructions. For detecting individual proteins, unless specified, blots were blocked with 5% milk-containing TBST (0.1% Tween20) for 1 hr at RT. Primary antibodies were added in the same blocking buffer for overnight incubation (1:1,000 rabbit RFP, Rockland, Cat. No., 600-401-379-RTU, and 1:1,000 mouse Psd95 Biolegend Cat. Nol, 810401)). […] All quantification was performed using LI-COR Image Studio version 5.2. For densitometry quantification, band signals were normalized to total protein stain in each blot using the equation below. […]

NanoLuc = assay: Western blot analysis of forskolin stimulation in cell culture: NanoLuc (RFP); details: 1 μM forskolin vs 0.1% DMSO, normalized band signal, n=3, adj. p=0.324
Experimental: as §2, §3

Psd95 = assay: Western blot analysis of forskolin stimulation in cell culture: Psd95; details: 1 μM forskolin vs 0.1% DMSO, normalized band signal, n=3, adj. p=1
Experimental: as §2, §3

SMILES: COc1ccc(-c2ccc(=N)n(CCCC(=O)O)n2)cc1 [Gabazine]
- dose-response of luciferase activity, construct (1) [1]: dose-response is cell-type specific

SMILES: [Cl-].[K+] [KCl]
- biotin-labelling after induction of neuronal activity (primary cortical neurons): enhanced biotin-labelling

SMILES: CNC1(c2ccccc2Cl)CCCCC1=O (stereo not drawn) [Ketamine]
- dose-response of luciferase activity, construct (1) [1]: dose-response is cell-type specific

SMILES: C=C[C@@]1(C)CC(=O)[C@]2(O)[C@@]3(C)[C@@H](O)CCC(C)(C)[C@@H]3[C@H](O)[C@H](OC(C)=O)[C@@]2(C)O1 [forskolin]
- cFos expression, FSK−DMSO (cFos): 3.232±0.769
- NanoLuc expression, FSK−DMSO (NanoLuc): 0.583±0.267
- Psd95 expression, FSK−DMSO (Psd95): −0.048±0.1131
